According to patent US20090281191A1, “USE OF ORGANIC COMPOUNDS” (priority 2006, published 2009):

Experiments:
(His)6-hERRγ LBD = molecular target: T1, (His)6-hERRγ LBD (Homo sapiens, UniProt P62508); assay: FRET assay of agonist-induced activation of ERRγ with coactivator peptide PGC-1α; assay type: biochemical; conditions: for maximal increase in FRET signal: highest concentration tested / saturating concentrations
T1 sequence (P62508 233-457 limits assumed): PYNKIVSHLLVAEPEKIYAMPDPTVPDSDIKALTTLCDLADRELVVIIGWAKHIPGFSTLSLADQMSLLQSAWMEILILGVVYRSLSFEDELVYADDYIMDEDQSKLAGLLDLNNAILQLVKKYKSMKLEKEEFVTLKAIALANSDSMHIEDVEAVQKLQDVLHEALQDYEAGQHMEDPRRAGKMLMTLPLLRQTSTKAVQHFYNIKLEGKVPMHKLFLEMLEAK
Experimental: The FRET assay is designed to detect agonist-induced activation of ERRγ in the presence of the coactivator peptide PGC-1α. […] Mix 1 contained antibody, hERRγ LBD in buffer in a volume of 19 μL and was added to 30 μL of Mix 2 which contained Cy5-peptide in buffer (1. 6xHis-ERRγ-LBD, 3.6 mg/ml, MW 27 KDa; 2. Cy5-PGC-1 peptide from AnaSpec; 3. Other buffer components from Sigma; 4. EU-antiHis6-Ab from Perkin Elmer; and 5. Test compounds.). The assays were carried out in black 384-well plates and incubated at room temperature for 3 hrs before FRET signals were measured using a Wallac Victor 2 (Perkin Elmer) plate reader. The ratio of emission signals (665 nm/615 nm) was used to determine the FRET assay response. In some cases, the FRET signal to background ratio was used and this is simply defined as the FRET ratio in the presence of protein […] FRET ratio in the absence of protein. The test compounds were dissolved in DMSO at 10 mM and used as indicated.
The ability of agonist compounds to induce an increased FRET response between the Europium-labeled anti-(His)6 antibody/(His)6-hERRγ LBD complex and Cy5-[…] […] The compounds were solubilized in 10 mM DMSO and the concentration range of the titration was from 100 μM down to 2 nM. The final DMSO concentration was 2%. A DMSO control (no compound) at 2% was also prepared. All samples were made in duplicate.

ERRα = molecular target: T2, ERRα (Homo sapiens, UniProt P11474); conditions: Zuercher et al. 2005; cited from earlier work
T2 sequence (P11474 1-423): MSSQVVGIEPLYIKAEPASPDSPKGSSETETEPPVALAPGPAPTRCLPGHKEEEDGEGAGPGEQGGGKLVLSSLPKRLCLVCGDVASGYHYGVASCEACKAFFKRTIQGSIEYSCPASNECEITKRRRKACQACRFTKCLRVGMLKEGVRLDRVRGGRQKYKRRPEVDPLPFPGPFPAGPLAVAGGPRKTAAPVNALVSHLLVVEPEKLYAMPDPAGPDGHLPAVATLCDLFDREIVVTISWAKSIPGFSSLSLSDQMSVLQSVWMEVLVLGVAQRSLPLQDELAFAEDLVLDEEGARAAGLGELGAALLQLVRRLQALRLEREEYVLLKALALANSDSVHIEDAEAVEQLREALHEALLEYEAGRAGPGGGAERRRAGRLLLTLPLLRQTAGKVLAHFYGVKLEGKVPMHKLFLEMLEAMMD

ERRβ = molecular target: T3, ERRβ (Homo sapiens, UniProt O95718); conditions: purportedly, Zuercher et al. 2005; cited from earlier work
T3 sequence (O95718 1-433): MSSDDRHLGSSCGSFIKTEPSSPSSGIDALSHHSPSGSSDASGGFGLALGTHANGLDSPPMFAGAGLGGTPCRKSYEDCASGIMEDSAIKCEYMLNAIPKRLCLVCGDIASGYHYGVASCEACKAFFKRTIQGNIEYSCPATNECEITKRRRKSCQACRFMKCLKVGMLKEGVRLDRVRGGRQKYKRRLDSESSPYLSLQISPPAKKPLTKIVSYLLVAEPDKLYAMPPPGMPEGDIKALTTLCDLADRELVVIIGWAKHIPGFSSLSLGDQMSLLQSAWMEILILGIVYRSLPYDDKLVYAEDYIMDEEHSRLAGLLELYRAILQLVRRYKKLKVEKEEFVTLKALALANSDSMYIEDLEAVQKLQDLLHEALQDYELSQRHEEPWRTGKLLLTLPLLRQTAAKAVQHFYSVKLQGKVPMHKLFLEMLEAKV

primary mouse myotubes [1] = assay: Gene expression by real time quantitative PCR in primary mouse myotubes; assay type: cell-based; conditions: 24 h
Experimental: (§1) Primary mouse myoblasts from FVB mice were isolated and maintained as described in Bare et al. For experimentation, mouse myoblasts were grown to 80% confluence in F-10/Ham's media containing 20% fetal bovine serum, 1% Penicillin/Streptomycin and 2.5 ng/mL bFGF (human recombinant). The cells were then plated to 700,000 cells per well in 6-well plates, and allowed to differentiate into myotubes for 36 to 48 hours in DMEM containing 5% equine serum and Penicillin/Streptomycin. […] Assays performed included analysis of gene expression by real time quantitative PCR (RT-PCR), cytochrome c ELISA, citrate synthase assay, fatty acid oxidation assay, and a respiration assay. […] Each dose was tested in trplicate, and a set of wells treated with an equivalent volume of DMSO used was included in every experimental readout for control purposes.
For the purpose of assessing gene expression by RT-PCR, RNA was isolated from cell lysates, and cDNA was subsequently synthesized from this RNA. For RNA isolation, cells were homogenized in TRIzol (Invitrogen, catalog number 15596-026, Carlsbad, Calif.), and total RNA was isolated following the manufacturer's instructions. RNA was quantified using the spectrophotometer.
Reverse transcription was performed using the BD Sprint™ PowerScriptT™ kit from BD Biosciences (catalog number 639562). Quantitative real time PCR for the following genes was performed using Assay-on-Demand primer probes from Applied Biosystems (See Post-text Table 8-1 for catalog numbers): B2M, ERRγ, ERRβ, ERRα, PGC-1α, PGC-1β, PPARα, PPARγ, PPARδ, COX-4, cytochrome c, UQCRB, CPT-1b, LCAD, MCAD, IDH3a, ATP-5b, UCP-2, and UCP-3.
Taqman real time quantitative PCR was performed and analyzed following the manufacturer's instructions (Applied Biosystems). Specifically, amplification was performed in triplicate, in a 10 μl reaction mixture. The reaction mixture included: 1× TaqMan® Universal PCR Master Mix (Applied Biosystems, catalog number 4304437), 1× of Assay-on-Demand primer probe, and 2 μl of cDNA sample. Gene expression was calculated by normalizing to total cDNA as measured by B2M endogenous control (Applied Biosystems, catalog number Mm00437762_m1). The samples were initially incubated for 2 min at 50° C. for optimum uracyl-N-glycosylase activity. The PCR program started with a 95° C. denaturing for 10 min, followed by 40 cycles of 95° C./15 sec and 60° C./1 min in a 384-well thermal cycler (Perkin-Elmer Applied Biosystems). Each amplification run contained “No Template” controls (buffer and primers only). Amplification data were collected by the 7700 Sequence Detector and analyzed using the Sequence Detection System software developed by Perkin-Elmer (Applied Biosystems). The fractional cycle number reflecting a positive PCR result is called the cycle threshold (Ct).
Average gene expression values were calculated for each group relative to B2M, using 2^−ΔΔCt (as described by Applied Biosystems, Foster City, Calif.) with the expression in the vehicle treated cells (0 μM) normalized to a value of 1. The data are expressed as mean±SEM (n=3 replicate wells). Statistical significance was measured using Student's t test.

primary mouse myotubes [2] = assay: Cytochrome c ELISA in primary mouse myotubes; assay type: cell-based; conditions: 30 μM, 24 hours, vs vehicle
Experimental: as §1
The cytochrome c enzyme-linked immunosorbent assay (ELISA) was performed using the RatMouse Cytochrome c Immunoassay kit from R&D Systems (catalog number MCTC0, R&D Systems, Minneapolis, Minn.) following the manufacturer's instructions.

primary mouse myotubes [3] = assay: Citrate synthase assay in primary mouse myotubes; assay type: cell-based; conditions: 24 hours
Experimental: as §1
The citrate synthase assay was performed following the procedure described in above in this application.

primary mouse myotubes [4] = assay: Respiration assay (oxygen consumption, Clark electrode) in primary mouse myotubes; assay type: cell-based; conditions: 30 μM, 24 hr
Experimental: as §1
Cells were washed once with phosphate-buffered saline (PBS) and treated for 5 min at 37° C. with 2 ml of trypsin (Mediatech, catalog number 25-052-CI). Without removing trypsin, 10 ml of DMEM plus 10% FBS was added into each well. The cells were transferred to a 15 ml tube and centrifuged for 5 min at 1000 rpm. The cells were washed once with the medium and pelleted before being resuspended in the assay buffer containing 25 mM glucose (Sigma, catalog number G-5400), 1 mM pyruvate (Invitrogen, catalog number 11360-070) and 2% bovine serum albumin (BSA) (MP Biomedicals, catalog number 103703) in D-PBS (Invitrogen, catalog number 14040-133). The cell suspension was diluted to 1×10^6 cells per ml in the assay buffer and kept at 37° C. until used. Oxygen consumption was measured with a Clark electrode according to the instructions provided by Hansatech (Norfolk, UK). One half of the cell suspension was used for each measurement. […] The rate of respiration was measured by calculating the slope of the flux of oxygen consumption using the software provided by the manufacturer.

ERRγ = molecular target: T4, ERRγ (Homo sapiens, UniProt P62508); conditions: purportedly, Zuercher et al. 2005; cited from earlier work
T4 sequence (P62508 1-458): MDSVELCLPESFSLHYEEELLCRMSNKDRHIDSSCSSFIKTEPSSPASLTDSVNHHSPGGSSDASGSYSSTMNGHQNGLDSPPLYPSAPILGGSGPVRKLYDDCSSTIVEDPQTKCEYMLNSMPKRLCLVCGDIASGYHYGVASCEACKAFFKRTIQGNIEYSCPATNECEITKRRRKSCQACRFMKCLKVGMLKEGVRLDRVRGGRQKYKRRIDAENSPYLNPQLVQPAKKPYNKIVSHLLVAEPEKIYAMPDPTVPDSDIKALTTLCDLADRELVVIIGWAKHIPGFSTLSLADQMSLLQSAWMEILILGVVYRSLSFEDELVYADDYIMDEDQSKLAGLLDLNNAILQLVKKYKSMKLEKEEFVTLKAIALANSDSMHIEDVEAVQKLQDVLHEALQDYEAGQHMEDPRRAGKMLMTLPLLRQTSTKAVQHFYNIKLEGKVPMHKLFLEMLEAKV

ERs = conditions: Zuercher et al. 2005; cited from earlier work
[5] = 30 μM, relative to B2M, vehicle = 1

For `CCN(CC)c1ccc(/C=N/NC(=O)c2ccc(O)cc2)cc1` [LCN446, N′-(4-(diethylamino)phenylmethylidene)-4-hydroxybenzohydrazide], the “maximal increase in FRET signal” value ((His)6-hERRγ LBD) was 70% and the EC50 ((His)6-hERRγ LBD; titration 100 μM down to 2 nM, 2% DMSO, duplicate, read-out: EC50 of FRET response) was 540 nM.
In the case of `CC(C)c1ccc(/C=N/NC(=O)c2ccc(O)cc2)cc1` [AJQ710, 4-hydroxy-N′-(4-isopropylphenylmethylidene)-benzohydrazide], the “activation of ERRα” value (ERRα) is given as “does not activate”, the “activation of ERRβ (printed ERRP)” value (ERRβ) is given as “activates” and the UCP-2 highest expression (primary mouse myotubes [1]; 10 μM, relative to B2M, vehicle = 1) is given as 1.5 fold. The ATP-5b expression increase (primary mouse myotubes [1]; [5]) was 1.6 fold, the COX-4 expression increase (primary mouse myotubes [1]; [5]) was 2 fold and the CPT-1b expression increase (primary mouse myotubes [1]; [5]) was “over 3 fold”. It also gave an ERRα expression increase (primary mouse myotubes [1]; [5]) of 3.7 fold, an ERRβ expression increase (primary mouse myotubes [1]; [5]) of 1.5 fold and an ERRγ expression (primary mouse myotubes [1]; [5]) of 1.4 fold. The IDH3α expression increase (primary mouse myotubes [1]; [5]) was “over 2 fold”, the LCAD expression increase (primary mouse myotubes [1]; [5]) was 2.8 fold and the MCAD expression increase (primary mouse myotubes [1]; [5]) was 1.6 fold. For the same compound, the PGC-1α expression (primary mouse myotubes [1]; [5]) was 1.9 fold, the PPARγ maximal expression (primary mouse myotubes [1]; [5]) was 2.2 fold and the UCP-3 expression increase (primary mouse myotubes [1]; [5]) was “over 3 fold”. For the same compound, the UQCRB expression increase (primary mouse myotubes [1]; [5]) was 2 fold, the “cytochrome c expression increase” value (primary mouse myotubes [1]; [5]) was 3.7 fold and the PPARα expression (primary mouse myotubes [1]; 1-30 μM) was “no change in expression”. The PPARδ expression (primary mouse myotubes [1]; 1-30 μM) was “no change in expression”, the PGC-1β expression (primary mouse myotubes [1]; relative to B2M, vehicle = 1) was 1.8 fold and the “increase of cytochrome c protein” value (primary mouse myotubes [2]) was 88%. The “maximal increase in FRET signal” value ((His)6-hERRγ LBD) was no more than 60%, the “increase in citrate synthase activity” value (primary mouse myotubes [3]; 3 μM) was 9% and the “increase in citrate synthase activity” value (primary mouse myotubes [3]; 10 μM) was 8%. The “increase in citrate synthase activity” value (primary mouse myotubes [3]; 30 μM) was 28%, the “increase in basal respiration” value (primary mouse myotubes [4]; vs vehicle treated controls) was 37% and the “increase in respiration rate in the presence of FCCP” value (primary mouse myotubes [4]; vs vehicle-treated control cells) was 32%. For the same compound, the “increase in oligomycin-insensitive respiration (proton leak)” value (primary mouse myotubes [4]; not statistically significant) was 36%, the “activation of ERRγ” value (ERRγ) was “activates” and the “activation of the ERs” value (ERs) was “does not activate”.
